Results reported in patent US5643876A, “Biologically active synthetic magainin peptides” (The United States of America as represented by the …, priority 1992, dated 1997).
No end group written: not given here.

Legend:
E. coli Y1088 = experiment: Zone of inhibition on lawn of E. coli Y1088; type: cell-based
[1] = test system: Klebisiella pneumonia (13883); experiment: Minimal inhibitory concentration in trypticase soy broth; type: cell-based
Text: (§1) Table III also lists the range of minimal inhibitory concentrations for various organisms assayed in trypticase soy broth. These determinations were made following standard techniques well known in the art and described in such publications as, DIFCO Manual, 10th edition, 1984, pages 78-80.

[2] = test system: Citrobacter freundii (8090); experiment: as above; type: cell-based
Text: as §1

Eschericia coli (25922) = experiment: as above; type: cell-based
Text: as §1

Proteus vulgaris (13315) = experiment: as above; type: cell-based
Text: as §1

[3] = test system: Pseudomonas aeruginosa (27853); experiment: as above; type: cell-based
Text: as §1

[4] = test system: Staphylococcus aureus (25923); experiment: as above; type: cell-based
Text: as §1

Eschericia coli D31 = experiment: as above; type: cell-based
Text: as §1

[5] = test system: Streptococcus pyogenes (19615); experiment: as above; type: cell-based
Text: as §1

Candida albicans (14053) = experiment: as above; type: cell-based
Text: as §1

[6] = test system: Enterobacter aerogenes (13048); experiment: as above; type: cell-based
Text: as §1

[7] = test system: Streptococcus faecalis (19433); experiment: as above; type: cell-based
Text: as §1

[8] = test system: Serratia marcescens (8100); experiment: as above; type: cell-based
Text: as §1

[9] = test system: Salmonella typhimurium (14028); experiment: as above; type: cell-based
Text: as §1

[10] = test system: Staphyloccus epidermidis (1228); experiment: as above; type: cell-based
Text: as §1

[11] = test system: Acinetobacter caloaceticus (19606); experiment: as above; type: cell-based
Text: as §1

Amoeba proteus = experiment: Antiprotozoan activity, physical lysis by light microscopy; type: cell-based; conditions: approximate concentration, visual assessment by light microscopy
Text: (§2) Table IV lists the approximate concentration of Magainins which induces physical lysis of several representative protozoan species. These determinations were made by visual assessment of the treated organisms by light microscopy. Of course, the optimal effective antimicrobial concentration of a particular Magainin can be easily determined in a routine manner without undue experimentation by techniques well known to one of ordinary skill in the art.

Euglena gracilis = experiment: as above; type: cell-based; conditions: approximate concentration, visual assessment by light microscopy
Text: as §2

Paramecium caudatum = experiment: as above; type: cell-based; conditions: approximate concentration, visual assessment by light microscopy
Text: as §2

[12] = test system: Enterobacter sonnei (23355); experiment: Minimal inhibitory concentration in trypticase soy broth; type: cell-based
Text: as §1

Shigella sonnei (25931) = experiment: as above; type: cell-based
Text: as §1

Acanthomeba castellani = experiment: Comparison of potencies, MIC (Table V); type: cell-based
Text: (§3) It is pointed that the addition of a carboxyl-terminal amide to Magainin II results in about a 5-fold increase in potency of the peptide in several systems when compared to Magainin II. This simple modification illustrates one of several ways of modifying the polypeptides of the present invention.

Pseudomonas aeruginosa = experiment: Comparison of potencies, MIC (Table V); type: cell-based
Text: as §3

Saccharomyces cerviscae = experiment: Comparison of potencies, MIC (Table V); type: cell-based
Text: as §3

E. coli D-31 = experiment: Comparison of potencies, MIC (Table V); type: cell-based; conditions: E. coli D-31 (Table V)
Text: as §3

human sperm = experiment: Spermicidal activity, sperm motility by light microscopy; type: cell-based; conditions: human sperm in phosphate buffered saline, room temperature
Description: Magainin II(g) was added in various concentrations to a suspension of human sperm in phosphate buffered saline. Motility was assayed by visual inspection under a light microscope. Observations were conducted at room temperature (about 22°-25° C.). The approximate number of motile sperm observed in 20 independent fields was noted as a function of concentration. Magainin II(g) inhibits sperm motility by 50% at 35 μg/ml and by 100% at 75 μg/ml.

[13] = test system: Human Buccal Epithelial Cells; experiment: Cytotoxicity by loss of Trypan Blue exclusion; type: cell-based; conditions: 30 minutes after addition
Text: (§4) This activity is considered a significant attribute of the Magainin peptides in that it permits their use in the killing of animal cells. […] The most resistant appears to be the epithelial cell from the oral mucosa. The most sensitive is a transformed monkey kidney cell. […] This includes anti-tumor activity, in vivo cytolysis or growth inhibition of malignant cells, such as in leukemias and selective reduction in specific cell populations (e.g., removal of lymphocytes from blood).
(§5) Cells were suspended in standard minimal Eagles medium containing 10% fetal calf serum. VERO cells and KB cells were obtained from the American Type Culture Collection. Human diploid fibroblasts were propagated from a primary dermal biopsy. Human lymphocytes were collected from a buffy coat preparation by centrifugation in ficoll-hyapaque medium. Human buccal epithelium was obtained by scraping the oral mucosa with a glass cover-slip and resuspending the cellular scraping in MEM. Cytotoxicity was determined by loss of Trypan Blue exclusion, following addition of dye to the medium. Cytotoxicity was assessed 30 minutes after addition of the peptide. Concentration noted represents the concentration of peptide resulting in 50% toxicity as determined visually by light microscopic examination of the treated cells.

Human KB Cells = experiment: Cytotoxicity by loss of Trypan Blue exclusion; type: cell-based; conditions: 30 minutes after addition
Text: as §4, §5

[14] = test system: Human Diploid Fibroblasts; experiment: Cytotoxicity by loss of Trypan Blue exclusion; type: cell-based; conditions: 30 minutes after addition
Text: as §4, §5

[15] = test system: Peripheral Human Lymphocytes; experiment: Cytotoxicity by loss of Trypan Blue exclusion; type: cell-based; conditions: 30 minutes after addition
Text: as §4, §5

HTLV III = experiment: Anti-viral activity against HTLV III in SUPT1 tester cells; type: cell-based; conditions: 200 μg/ml, virus preincubated 37° C. 30 min
Description: HTLV III was obtained from culture media from the producing cell line A.3101. The media was diluted with MEM containing 10% fetal calf serum (FCS) to a viral concentration of about 10^4 pfu/ml. Magainin II(g) was added to the viral innoculum (1 ml) to a concentration of 200 μg/ml and incubated at 37° C. for 30 min. The viral innoculum was then added to a well containing 10^3 tester cells (cell line, SUPT1) and 1 ml of MEM with 10% FCS. Viral activity was assessed by formation of syncytia and cell death in the test cell culture as compared with cell cultures unexposed to Magainin peptides.

Plasmodium gallinaceum = experiment: Activity against malarial parasite, direct light microscopy; type: cell-based; conditions: 100 ug/ml in phosphate buffered saline, within seconds
Description: Observations of activity were conducted by direct light microscopy. A sample of female and male zygotic forms of the chicken malarial parasite were suspended in phosphate buffered saline. Magainin II(g) was added to each at 100 ug/ml.

Vero Cells = experiment: Cytotoxicity by loss of Trypan Blue exclusion; type: cell-based, monkey; conditions: 30 minutes after addition, MEM with 10% fetal calf serum
Text: as §4, §5

[16] = test system: Shigella flexneri (12022); experiment: Minimal inhibitory concentration in trypticase soy broth; type: cell-based
Text: as §1

GKFLHSAKKFGKAFVGEIMNS [Magainin II(b)]
Zone of Inhibition on Lawn of E. coli Y1088 Generated by 50 μg of the Peptide (E. coli Y1088): 10 mm

GIGKFLHSAKKFGKAFVGEIMN [Magainin III]
Minimal Inhibitory Concentration [1]: > 100 µg/mL
Minimal Inhibitory Concentration [2]: 7 to 35 µg/mL
Minimal Inhibitory Concentration (Eschericia coli (25922)): 7 to 35 µg/mL
Minimal Inhibitory Concentration (Proteus vulgaris (13315)): > 100 µg/mL
Minimal Inhibitory Concentration [3]: 35 to 70 µg/mL
Minimal Inhibitory Concentration [4]: > 100 µg/mL
Minimal Inhibitory Concentration (Eschericia coli D31): 1 to 10 µg/mL
Minimal Inhibitory Concentration [5]: 7 to 35 µg/mL
Minimal Inhibitory Concentration (Candida albicans (14053)): > 100 µg/mL
Minimal Inhibitory Concentration [6]: > 100 µg/mL
Minimal Inhibitory Concentration [7]: > 100 µg/mL
Minimal Inhibitory Concentration [8]: > 100 µg/mL
Minimal Inhibitory Concentration [9]: 35 to 70 µg/mL
Minimal Inhibitory Concentration [10]: 35 to 70 µg/mL
Minimal Inhibitory Concentration [11]: 7 to 35 µg/mL
Concentration required for osmotic lysis (Amoeba proteus): 5 µg/mL
Concentration required for osmotic lysis (Euglena gracilis): 5 µg/mL
Concentration required for osmotic lysis (Paramecium caudatum): 5 µg/mL

LHSAKKFGKAFVGEIMNS [Magainin II(e), (NH2)LHSAKKFGKAFVGEIMNS(OH)]
Zone of Inhibition on Lawn of E. coli Y1088 Generated by 50 μg of the Peptide (E. coli Y1088): 1 mm

GIGKFLHSAKKFGKAFVGEIMNS [Magainin II]
Minimal Inhibitory Concentration [2]: 7 to 35 µg/mL
Minimal Inhibitory Concentration (Eschericia coli (25922)): 1 to 7 µg/mL
Minimal Inhibitory Concentration [12]: 1 to 7 µg/mL
Minimal Inhibitory Concentration (Proteus vulgaris (13315)): > 100 µg/mL
Minimal Inhibitory Concentration [3]: 35 to 70 µg/mL
Minimal Inhibitory Concentration [4]: 35 to 70 µg/mL
Minimal Inhibitory Concentration (Eschericia coli D31): 1 to 10 µg/mL
Minimal Inhibitory Concentration [5]: 1 to 7 µg/mL
Minimal Inhibitory Concentration (Candida albicans (14053)): 35 to 70 µg/mL
Minimal Inhibitory Concentration [6]: 7 to 35 µg/mL
Minimal Inhibitory Concentration [7]: 35 to 70 µg/mL
Minimal Inhibitory Concentration [8]: > 100 µg/mL
Minimal Inhibitory Concentration [9]: 35 to 70 µg/mL
Minimal Inhibitory Concentration (Shigella sonnei (25931)): 1 to 7 µg/mL
Minimal Inhibitory Concentration [10]: 7 to 35 µg/mL
Minimal Inhibitory Concentration [11]: 1 to 7 µg/mL
MIC (Acanthomeba castellani): 15 µg/mL
MIC (Pseudomonas aeruginosa): 70 µg/mL
MIC (Saccharomyces cerviscae): 50 µg/mL
MIC (E. coli D-31): 10 µg/mL
Concentration required for osmotic lysis (Amoeba proteus): 5 µg/mL
Concentration required for osmotic lysis (Euglena gracilis): 5 µg/mL
Concentration required for osmotic lysis (Paramecium caudatum): 5 µg/mL

GIGKFLHSAKKFGKAFVGEIMNS-NH2 [Magainin II(g)]
Zone of Inhibition on Lawn of E. coli Y1088 Generated by 50 μg of the Peptide (E. coli Y1088): 15 mm
Concentration that inhibits sperm motility by 50% (human sperm): 35 µg/mL
Concentration that inhibits sperm motility by 100% (human sperm): 75 µg/mL
Concentration of peptide resulting in 50% toxicity [13]: 500 µg/mL
Concentration of peptide resulting in 50% toxicity (Human KB Cells): 125 µg/mL
Concentration of peptide resulting in 50% toxicity [14]: 250 µg/mL
Concentration of peptide resulting in 50% toxicity [15]: 75 µg/mL
Reverse transcriptase activity in culture fluids (HTLV III): no greater reverse transcriptase activity than uninfected cells
Viral activity by formation of syncytia and cell death in test cell culture (HTLV III; 2 weeks incubation): appeared identical to cultures not exposed to virus
Effect on female and male zygotic forms of Plasmodium gallinaceum (Plasmodium gallinaceum): both forms underwent evident physical lysis
MIC (Acanthomeba castellani): 3 µg/mL
MIC (Pseudomonas aeruginosa): 15 µg/mL
MIC (Saccharomyces cerviscae): 10 µg/mL
MIC (E. coli D-31): 2 µg/mL
Concentration of peptide resulting in 50% toxicity (Vero Cells): 25 µg/mL

FLHSAKKFGKAFVGEIMNS [Magainin II(d), (NH2)FLHSAKKFGKAFVGEIMNS(OH)]
Zone of Inhibition on Lawn of E. coli Y1088 Generated by 50 μg of the Peptide (E. coli Y1088): 2 mm

GIGKFLHSAGKFGKAFVGEIMKS [Magainin I]
Minimal Inhibitory Concentration [1]: > 100 µg/mL
Minimal Inhibitory Concentration [2]: > 100 µg/mL
Minimal Inhibitory Concentration (Eschericia coli (25922)): 7 to 35 µg/mL
Minimal Inhibitory Concentration (Proteus vulgaris (13315)): > 100 µg/mL
Minimal Inhibitory Concentration [3]: > 100 µg/mL
Minimal Inhibitory Concentration [4]: > 100 µg/mL
Minimal Inhibitory Concentration (Eschericia coli D31): 1 to 20 µg/mL
Minimal Inhibitory Concentration [5]: 7 to 35 µg/mL
Minimal Inhibitory Concentration (Candida albicans (14053)): > 100 µg/mL
Minimal Inhibitory Concentration [6]: > 100 µg/mL
Minimal Inhibitory Concentration [7]: > 100 µg/mL
Minimal Inhibitory Concentration [8]: > 100 µg/mL
Minimal Inhibitory Concentration [9]: > 100 µg/mL
Minimal Inhibitory Concentration [16]: 35 to 70 µg/mL
Minimal Inhibitory Concentration [10]: > 100 µg/mL
Minimal Inhibitory Concentration [11]: 7 to 35 µg/mL
Concentration required for osmotic lysis (Amoeba proteus): 5 µg/mL
Concentration required for osmotic lysis (Euglena gracilis): 5 µg/mL
Concentration required for osmotic lysis (Paramecium caudatum): 5 µg/mL

KFLHSAKKFGKAFVGEIMNS [Magainin II(c)]
Zone of Inhibition on Lawn of E. coli Y1088 Generated by 50 μg of the Peptide (E. coli Y1088): 10 mm

GIGKYLHSAKKFGKAFVGEIMNS-NH2 [Magainin II(h)]
Zone of Inhibition on Lawn of E. coli Y1088 Generated by 50 μg of the Peptide (E. coli Y1088): 7 mm

HSAKKFGKAFVGEIMNS [Magainin II(f), (NH2)HSAKKFGKAFVGEIMNS(OH)]
Zone of Inhibition on Lawn of E. coli Y1088 Generated by 50 μg of the Peptide (E. coli Y1088): 0 mm
Effect on female and male zygotic forms of Plasmodium gallinaceum (Plasmodium gallinaceum): no visible effect
